Test results from ChEMBL document CHEMBL1201862, “PubChem BioAssay data set” (2004).
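Five compound concentrations were applied to cells in 96-well plates for 48 hours; endpoints were derived by simple linear interpolation of the resulting dose-response curve. Here, GI50 denotes the concentration required for 50% inhibition of growth.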 Active and inactive are the calls of the source. No stated cut-off is given here; in the data, active = GI50 up to about 1.1 µM and inactive = higher.

Legend:
Assay in all cases: inhibition of tumour cell growth, NCI panel, 48 h
SF-539 = tested on: SF-539
NCI-H226 = tested on: NCI-H226
EKVX = tested on: EKVX
HOP-92 = tested on: HOP-92
SNB-75 = tested on: SNB-75
SK-MEL-2 = tested on: SK-MEL-2
K562 = tested on: K562
IGROV-1 = tested on: IGROV-1
HCC 2998 = tested on: HCC 2998
HCT-15 = tested on: HCT-15
UO-31 = tested on: UO-31
NCI-H460 = tested on: NCI-H460
RPMI-8226 = tested on: RPMI-8226
SF-268 = tested on: SF-268
Malme-3M = tested on: Malme-3M
RXF 393 = tested on: RXF 393
TK-10 = tested on: TK-10
M14 = tested on: M14
786-0 = tested on: 786-0

Structure (SMILES) | GI50 (SF-539) | GI50 (NCI-H226) | GI50 (EKVX) | GI50 (HOP-92) | GI50 (SNB-75) | GI50 (SK-MEL-2) | GI50 (K562) | GI50 (IGROV-1) | GI50 (HCC 2998) | GI50 (HCT-15) | GI50 (UO-31) | GI50 (NCI-H460) | GI50 (RPMI-8226) | GI50 (SF-268) | GI50 (Malme-3M) | GI50 (RXF 393) | GI50 (TK-10) | GI50 (M14) | GI50 (786-0)
O=NN1C(c2ccccc2)C2CCCC(C2=O)C1c1ccccc1 (stereo unspecified) | 44.6 µM (inactive) | 25.1 µM (inactive) | 28.4 µM (inactive) | 22 µM (inactive) | 22.8 µM (inactive) | 20.2 µM (inactive) | 21.1 µM (inactive) | 40 µM (inactive) | 16.6 µM (inactive) | 29.3 µM | 22.9 µM (inactive) | 22 µM (inactive) | 22.3 µM (inactive) | 49.8 µM (inactive) | 7.53 µM (inactive) | 18.9 µM (inactive) | – | – | –
CC1CCC2(CC1)NN=c1s/c(=C\c3ccc(O)cc3)c(=O)n1N2 (stereo unspecified) | > 100 µM (inactive) | > 100 µM (inactive) | > 100 µM (inactive) | – | 63.5 µM (inactive) | – | > 100 µM (inactive) | > 100 µM (inactive) | > 100 µM (inactive) | – | – | > 100 µM (inactive) | > 100 µM (inactive) | > 100 µM (inactive) | – | > 100 µM (inactive) | > 100 µM (inactive) | > 100 µM (inactive) | > 100 µM (inactive)
C/C(CC(=O)Nc1cc(Cl)c(Cl)cc1Cl)=N\NC(N)=O | > 100 µM (inactive) | > 100 µM (inactive) | > 100 µM (inactive) | 39.1 µM (inactive) | 66.5 µM (inactive) | > 100 µM (inactive) | > 100 µM (inactive) | > 100 µM (inactive) | > 100 µM (inactive) | – | > 100 µM (inactive) | – | > 100 µM (inactive) | > 100 µM (inactive) | > 100 µM (inactive) | 61.7 µM (inactive) | > 100 µM (inactive) | > 100 µM (inactive) | > 100 µM (inactive)
CC(C)(C)c1ccc(OCCOCCOc2ccc(C(C)(C)C)cc2S(N)(=O)=O)c(S(N)(=O)=O)c1 | > 100 µM (inactive) | 40.7 µM (inactive) | > 100 µM (inactive) | 24.6 µM (inactive) | > 100 µM (inactive) | 67.8 µM (inactive) | > 100 µM (inactive) | > 100 µM (inactive) | > 100 µM (inactive) | 45.6 µM | 5.85 µM (inactive) | 34.9 µM (inactive) | 7.55 µM (inactive) | 97.3 µM (inactive) | 28.5 µM (inactive) | 20.2 µM (inactive) | > 100 µM (inactive) | 61.4 µM (inactive) | > 100 µM (inactive)
Cc1c(N)nc(C2CC(=O)N2CC(N)C(N)=O)nc1C(=O)NC(C(=O)NC(C)C(O)C(C)C(=O)NC(C(=O)NCCc1nc(-c2nc(C(=O)NCCNCC(C)O)cs2)cs1)C(C)O)C(OC1OC(CO)C(O)C(O)C1OC1OC(CO)C(O)C(OC(N)=O)C1O)c1c[nH]cn1 (stereo unspecified) | < 0.0295 µM (active) | 0.0223 µM (active) | > 41.1 µM (inactive) | 0.295 µM (active) | 0.344 µM (active) | 38.1 µM (inactive) | 20.1 µM (inactive) | 37.2 µM (inactive) | 21.9 µM (inactive) | 2.73 µM | 0.813 µM (active) | 0.1 µM (active) | 9.02 µM (inactive) | 0.5 µM (active) | 0.336 µM (active) | 0.0344 µM (active) | 37.6 µM (inactive) | 2.26 µM (inactive) | 33.2 µM (inactive)
COc1ccccc1NS(=O)(=O)c1cc(C(C)(C)C)ccc1OCCOc1ccc(C(C)(C)C)cc1S(=O)(=O)Nc1ccccc1OC | > 100 µM (inactive) | > 100 µM (inactive) | > 100 µM (inactive) | > 100 µM (inactive) | > 100 µM (inactive) | > 100 µM (inactive) | > 100 µM (inactive) | > 100 µM (inactive) | > 100 µM (inactive) | > 100 µM | > 100 µM (inactive) | > 100 µM (inactive) | > 100 µM (inactive) | > 100 µM (inactive) | > 100 µM (inactive) | > 100 µM (inactive) | > 100 µM (inactive) | > 100 µM (inactive) | > 100 µM (inactive)
Oc1ccc2ccccc2c1Cc1c(O)ccc2ccccc12 | 21.4 µM (inactive) | 20.9 µM (inactive) | 16.2 µM (inactive) | – | 20.5 µM (inactive) | 18.6 µM (inactive) | 8.83 µM (inactive) | 4.04 µM (inactive) | 17.4 µM (inactive) | 14.8 µM | 15 µM (inactive) | 26.5 µM (inactive) | 16.4 µM (inactive) | 14 µM (inactive) | 13.2 µM (inactive) | 16 µM (inactive) | 21 µM (inactive) | 16.7 µM (inactive) | 21.1 µM (inactive)
C[O+]=C1C=CC(=C2SC(c3ccccc3)(c3ccccc3)c3ccccc32)C=C1.[O-][Cl+3]([O-])([O-])[O-] | 18.7 µM (inactive) | 14.5 µM (inactive) | 17.8 µM (inactive) | 16.6 µM (inactive) | 26.9 µM (inactive) | 15.6 µM (inactive) | 26.7 µM (inactive) | 33 µM (inactive) | 26.5 µM (inactive) | 10.9 µM | 10 µM (inactive) | 14 µM (inactive) | 17.5 µM (inactive) | 29 µM (inactive) | 18.8 µM (inactive) | 11.8 µM (inactive) | 23.4 µM (inactive) | 16.1 µM (inactive) | 17.2 µM (inactive)
CCOC(=O)NC(=O)c1cn(CCCCCCOC(=O)NCCCCCCNC(=O)OCCCCCCn2cc(C(=O)NC(=O)OCC)c(=O)[nH]c2=O)c(=O)[nH]c1=O | > 100 µM (inactive) | > 100 µM (inactive) | > 100 µM (inactive) | – | > 100 µM (inactive) | > 100 µM (inactive) | > 100 µM (inactive) | > 100 µM (inactive) | > 100 µM (inactive) | > 100 µM | > 100 µM (inactive) | > 100 µM (inactive) | > 100 µM (inactive) | > 100 µM (inactive) | > 100 µM (inactive) | > 100 µM (inactive) | – | > 100 µM (inactive) | > 100 µM (inactive)
C[C@]12CCC(=O)C=C1CC[C@@H]1C2CC[C@]2(C)Nc3[nH]ncc3CC12 (stereo partly specified) | > 100 µM (inactive) | 60.3 µM (inactive) | 77.4 µM (inactive) | – | 30.3 µM (inactive) | > 100 µM (inactive) | > 100 µM (inactive) | > 100 µM (inactive) | > 100 µM (inactive) | > 100 µM | > 100 µM (inactive) | > 100 µM (inactive) | > 100 µM (inactive) | – | > 100 µM (inactive) | > 100 µM (inactive) | > 100 µM (inactive) | > 100 µM (inactive) | > 100 µM (inactive)
Cc1nc2nnc(CCCCCCCCc3nnc4nc(C)[nH]n34)n2[nH]1 | > 100 µM (inactive) | > 100 µM (inactive) | > 100 µM (inactive) | > 100 µM (inactive) | > 100 µM (inactive) | > 100 µM (inactive) | > 100 µM (inactive) | > 100 µM (inactive) | > 100 µM (inactive) | > 100 µM | > 100 µM (inactive) | > 100 µM (inactive) | – | > 100 µM (inactive) | > 100 µM (inactive) | > 100 µM (inactive) | > 100 µM (inactive) | > 100 µM (inactive) | > 100 µM (inactive)
CC(NC(=O)C(N)CC(=O)O)NC(=O)C1CCC1 (stereo unspecified) | > 100 µM (inactive) | > 100 µM (inactive) | > 100 µM (inactive) | – | > 100 µM (inactive) | > 100 µM (inactive) | > 100 µM (inactive) | > 10 µM (inactive) | – | > 100 µM | > 100 µM (inactive) | > 100 µM (inactive) | > 100 µM (inactive) | > 100 µM (inactive) | > 100 µM (inactive) | > 100 µM (inactive) | > 100 µM (inactive) | > 100 µM (inactive) | > 100 µM (inactive)
COC(=O)c1c(-c2ccccc2)cc2c3cc(-c4ccccc4)c(C(=O)OC)n3c3ccccc3n12 | > 100 µM (inactive) | > 100 µM (inactive) | > 100 µM (inactive) | – | 20.1 µM (inactive) | > 100 µM (inactive) | > 100 µM (inactive) | > 100 µM (inactive) | > 100 µM (inactive) | > 100 µM | > 100 µM (inactive) | > 100 µM (inactive) | > 100 µM (inactive) | > 100 µM (inactive) | > 100 µM (inactive) | > 44.8 µM (inactive) | > 100 µM (inactive) | > 100 µM (inactive) | > 100 µM (inactive)
C1CN(c2nc3c(nnc4nc(N5CCOCC5)sc43)s2)CCO1 | > 100 µM (inactive) | 84.7 µM (inactive) | > 100 µM (inactive) | 29.4 µM (inactive) | – | > 100 µM (inactive) | > 100 µM (inactive) | > 100 µM (inactive) | – | > 100 µM | > 100 µM (inactive) | – | > 100 µM (inactive) | 49.7 µM (inactive) | 37.2 µM (inactive) | > 100 µM (inactive) | > 100 µM (inactive) | > 100 µM (inactive) | > 100 µM (inactive)
O=c1[nH]c(-c2ccc([N+](=O)[O-])cc2)nc2ccc(Cl)cc12 | > 100 µM (inactive) | > 10 µM (inactive) | > 100 µM (inactive) | 26.8 µM (inactive) | 57.5 µM (inactive) | > 100 µM (inactive) | 17.9 µM (inactive) | 55.3 µM (inactive) | > 100 µM (inactive) | 94.4 µM | > 100 µM (inactive) | – | 47.1 µM (inactive) | > 100 µM (inactive) | > 100 µM (inactive) | 78.3 µM (inactive) | 51.8 µM (inactive) | – | > 100 µM (inactive)
